Data taken from publication PMC9154761, “Development of Praziquantel sulphonamide derivatives as antischistosomal drugs” (Journal of Enzyme Inhibition and Medicinal Chemistry, 2022).

Experiments:
hCA IV = target: T1, hCA IV (Homo sapiens, UniProt P22748); assay: stopped flow CO2 hydrase assay, hCA IV; format: biochemical; settings: mean from three different assays
T1 construct: made in house
Experimental: (§1) An Applied Photophysics stopped-flow instrument was used to assay the CA catalysed CO2 hydration activity. […] The CO2 concentrations ranged from 1.7 to 17 mM for the determination of the kinetic parameters and inhibition constants. […] For each inhibitor, at least six traces of the initial 5–10% of the reaction were used to determine the initial velocity. The uncatalyzed rates were determined in the same manner and subtracted from the total observed rates. Stock solutions of the inhibitor (0.1 mM) were prepared in distilled–deionized water and dilutions up to 0.01 nM were done thereafter with the assay buffer. Inhibitor and enzyme solutions were preincubated together for 15 min at room temperature prior to the assay, to allow for the formation of the E–I complex. The inhibition constants were obtained by non-linear least-squares methods using PRISM 3 and the Cheng-Prusoff equation as reported earlier and represent the mean from at least three different determinations. All CA isoforms were recombinant proteins obtained in house, as reported earlier[14]^,[26–29].

hCA II = target: T2, hCA II (Homo sapiens, UniProt P00918); assay: stopped flow CO2 hydrase assay, hCA II; format: biochemical; settings: mean from three different assays, read-out: Ki hCAII
T2 construct: made in house
Experimental: as §1

SmCA = SmCA (Schistosoma mansoni, UniProt A0A3Q0KSG2); assay: biochemical; settings: stopped flow CO2 hydrase assay; mean from three different assays; read-out: Ki SmCA
Experimental: (§2) An Applied Photophysics stopped-flow instrument was used to assay the CA catalysed CO2 hydration activity. […] The uncatalyzed rates were determined in the same manner and subtracted from the total observed rates. Stock solutions of the inhibitor (0.1 mM) were prepared in distilled–deionized water and dilutions up to 0.01 nM were done thereafter with the assay buffer. Inhibitor and enzyme solutions were preincubated together for 15 min at room temperature prior to the assay, to allow for the formation of the E–I complex. The inhibition constants were obtained by non-linear least-squares methods using PRISM 3 and the Cheng-Prusoff equation as reported earlier and represent the mean from at least three different determinations. All CA isoforms were recombinant proteins obtained in house, as reported earlier[14]^,[26–29].

LdCA = LdCA (Leishmania donovani, UniProt A0A3S5H5R2); assay: biochemical; settings: stopped flow CO2 hydrase assay; mean from three different assays; read-out: Ki LdCA
Experimental: as §2

hCA I = target: T3, hCA I (Homo sapiens, UniProt P00915); assay: stopped flow CO2 hydrase assay, hCA I; format: biochemical; settings: mean from three different assays
T3 construct: made in house
Experimental: as §1

[1] = tested on: newly transformed schistosomula (NTS); assay: In vitro antischistosomal activity against newly transformed schistosomula (NTS); format: cell-based, Schistosoma mansoni; settings: 10 μM, after 72 h of exposure, viability via microscopy
Experimental: (§3) In vitro studies were carried out in accordance with Swiss national and cantonal regulations on animal welfare under the permission number 2070. The drug sensitivity assays with S. mansoni (adult and newly transformed schistosomules (NTS)) were carried out as described recently. Briefly, to obtain NTS, cercariae were collected from infected Biomphalaria glabrata snails and were mechanically transformed. Adult S. mansoni worms were collected by dissecting the mesenteric veins of infected mice at day 49 postinfection. Approximately 30–40 NTS were incubated with the respective test drug in 250 µL of M199 medium (Gibco, Waltham, MA) supplemented with 5% (v/v) foetal calf serum (FCS) (Bioconcept AG, Switzerland), 1% (v/v) penicillin/streptomycin solution (Sigma–Aldrich, Switzerland) and 1% (v/v) antibacterial/antifungal solution for up to 72 h at 37 °C and 5% CO2. The drug was tested at 10 µM in triplicate and repeated once. Three adult S. mansoni were incubated in a final volume of 2 mL rpmI 1640 supplemented with 5% (v/v) FCS and 1% (v/v) penicillin/streptomycin at 37 °C and 5% CO2 for 72 h at 10 µM. The experiment was conducted in duplicate. Worms were judged via microscopic readout 72 h after incubation; they were scored according to phenotypic reference points such as motility, morphology and granularity (scores from 0 to 3).

hCA IX = target: T4, hCA IX (Homo sapiens, UniProt Q16790); assay: stopped flow CO2 hydrase assay, hCA IX; format: biochemical; settings: mean from three different assays
T4 construct: made in house
Experimental: as §1

S. mansoni adult worms = assay: In vitro antischistosomal activity against adult S. mansoni worms; format: cell-based, Schistosoma mansoni; settings: 10 μM, 72 h, viability via microscopy
Experimental: as §3

T1 sequence (P22748 19-312): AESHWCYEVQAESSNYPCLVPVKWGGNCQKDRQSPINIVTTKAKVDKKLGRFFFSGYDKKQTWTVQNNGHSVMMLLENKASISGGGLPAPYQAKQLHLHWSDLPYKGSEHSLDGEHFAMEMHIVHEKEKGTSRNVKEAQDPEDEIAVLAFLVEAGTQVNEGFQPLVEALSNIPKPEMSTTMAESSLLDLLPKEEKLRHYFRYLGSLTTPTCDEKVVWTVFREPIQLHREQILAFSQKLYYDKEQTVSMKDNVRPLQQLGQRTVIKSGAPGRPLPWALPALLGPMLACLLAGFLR
T3 sequence (P00915 whole entry): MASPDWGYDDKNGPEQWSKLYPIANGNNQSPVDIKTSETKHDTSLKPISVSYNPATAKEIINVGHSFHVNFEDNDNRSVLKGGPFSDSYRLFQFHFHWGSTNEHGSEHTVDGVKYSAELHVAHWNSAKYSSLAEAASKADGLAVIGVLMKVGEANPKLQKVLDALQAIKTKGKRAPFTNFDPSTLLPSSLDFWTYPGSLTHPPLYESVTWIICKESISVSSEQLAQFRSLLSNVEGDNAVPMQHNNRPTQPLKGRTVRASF
LdCA, sequence (A0A3S5H5R2 entry or part of it): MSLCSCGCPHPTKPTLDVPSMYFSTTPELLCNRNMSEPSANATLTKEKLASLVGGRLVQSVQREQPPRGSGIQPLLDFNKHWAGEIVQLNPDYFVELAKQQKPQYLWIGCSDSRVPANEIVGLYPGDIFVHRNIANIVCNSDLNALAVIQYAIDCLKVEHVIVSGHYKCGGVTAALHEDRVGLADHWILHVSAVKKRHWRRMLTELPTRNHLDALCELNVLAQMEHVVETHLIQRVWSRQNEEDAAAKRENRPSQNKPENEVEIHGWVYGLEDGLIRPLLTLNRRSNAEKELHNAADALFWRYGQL
SmCA, sequence (A0A3Q0KSG2 entry or part of it): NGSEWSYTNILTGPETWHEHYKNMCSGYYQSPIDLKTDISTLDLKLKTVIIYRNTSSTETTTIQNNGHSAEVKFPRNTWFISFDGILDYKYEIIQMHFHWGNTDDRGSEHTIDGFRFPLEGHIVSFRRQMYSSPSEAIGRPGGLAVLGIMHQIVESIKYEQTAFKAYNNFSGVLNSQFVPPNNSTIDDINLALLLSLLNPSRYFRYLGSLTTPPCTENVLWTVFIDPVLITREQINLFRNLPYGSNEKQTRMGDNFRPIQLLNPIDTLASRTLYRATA

| Compound | Ki (hCA IV) [nM] | Ki (hCA II) [nM] | Ki (SmCA) [nM] | Ki (LdCA) [nM] | Ki (hCA I) [nM] | activity against NTS [1] | Ki (hCA IX) [nM] | activity against adult S. mansoni worms (S. mansoni adult worms) [%] |
| --- | --- | --- | --- | --- | --- | --- | --- | --- |
| NS(=O)(=O)c1ccc(NC(=O)NCc2ccc(C(=O)N3CC(=O)N4CCc5ccccc5C4C3)cc2)cc1 (stereo not shown) [Compound 28a, 4–(3-(4–(4-Oxo-1,3,4,6,7,11b-hexahydro-2H-pyrazino[2,1-a]isoquinoline-2-carbonyl)benzyl)ureido)benzenesulfonamide] | 548 ± 29.6 | 8.2 ± 0.7 | 614 ± 50.6 | 340 ± 33.9 | 74.4 ± 3.9 | over 30% | 31.8 ± 1.8 |  |
| NS(=O)(=O)c1ccc(NC(=O)N2CC(=O)N3CCc4ccccc4C3C2)cc1 (stereo not shown) [Compound 34a, 4-Oxo-N-(4-sulfamoylphenyl)-1,3,4,6,7,11b-hexahydro-2H-pyrazino[2,1-a]isoquinoline-2-carboxamide] | 4410 ± 371 | 8.4 ± 0.8 | 59.6 ± 4.3 | 253 ± 19.4 | 70.4 ± 5.7 | over 30% | 24.7 ± 1.44 | 30.6 |
| NS(=O)(=O)c1ccc(CCC(=O)N2CC(=O)N3CCc4ccccc4C3C2)cc1 (stereo not shown) [Compound 4b, 4–(3-Oxo-3–(4-oxo-1,3,4,6,7,11b-hexahydro-2H-pyrazino[2,1-a]isoquinolin-2-yl)propyl) benzenesulfonamide] | 785 ± 58.3 | 17.5 ± 1 | 93.6 ± 7 | 417 ± 33.9 | 67.7 ± 5.1 |  | 139 ± 8 | 20.9 |
